Assay results taken from PMC5983663, “Design, Synthesis, and Biological Evaluation of Benzimidazole-Derived Biocompatible Copper(II) and Zinc(II) Complexes as Anticancer Chemotherapeutics” (International Journal of Molecular Sciences, 2018).

What was measured:
Test in all cases: MTT assay
Type in all cases: cell-based, human
HT018 (Colon) = settings: HT018, 48 h; NA stands for Not Active
Procedure: (§1) Human cancer cell lines HepG2 (Liver), SK-MEL-1 (Skin), HT 018 (Colon), HeLa (Cervical), and MDA-MB 231 (Breast) were procured from the American Type Culture Collection (Rockville, MD, USA). MDA-MB-231 and HepG2 cell lines were maintained in DMEM; whereas SK-MEL-1, HeLa, and HT-018 were maintained in RPMI medium. The complete growth medium was supplemented with 10% (v/v) heat-inactivated FCS, 2 mM L-glutamine, and antimycotic-antibiotic solution. All of the cells were maintained in a standard culture condition of 37 °C temperature and 95% humidified atmosphere containing 5% CO2. Cells were screened periodically for mycoplasma contamination.
(§2) The novel complexes 1 and 2 were examined for their cytotoxicity against five different types of cancer cell lines viz., HepG2, SK-MEL-1, HT 018, HeLa, and MDA-MB 231 using a standard MTT reduction assay, according to Khan et al. (2012). Briefly, cells at a concentration of 1 × 10^6 cells/[…]/well were plated in 96-well plates and further grown in their respective medium containing 10% FCS. After 24 h, cells were incubated with 0–25 μM concentrations of test complexes or respective free ligands. Cells with 0.1% DMSO (vehicle control) and cisplatin (positive control) were also cultured under the same conditions. Cells only were used as negative control. Ensuing 48 h of incubation, old medium from treated cells was replaced with fresh medium. MTT reagent (5 mg/mL in PBS) was added to each well, and cells were further incubated for 2–3 h at 37 °C. After treatment, the supernatants were carefully removed, and 100 μL of DMSO was added to each well. Absorbance was measured at 620 nm in a multi-well plate reader, and drug sensitivity was expressed in terms of the concentration of drug required for a 50% reduction of cell viability (IC50).

HeLa (Cervical) = settings: 48 h, NA stands for Not Active
Procedure: as §1, §2

HepG2 (Liver) = settings: HepG2, 48 h; NA stands for Not Active
Procedure: as §1, §2

MDA-MB 231 (Breast) = settings: MDA-MB 231, 48 h; NA stands for Not Active
Procedure: as §1, §2

SK-MEL-1 (Skin) = settings: SK-MEL-1, 48 h; NA stands for Not Active
Procedure: as §1, §2

With `N.N.[Cl][Pt][Cl]` [Cisplatin, cisplatin, reference compound] the IC50 (HT018 (Colon)) was 5.7 ± 0.2 µM, the IC50 (HeLa (Cervical)) was 6 ± 0.6 µM and the IC50 (HepG2 (Liver)) was 6 ± 0.4 µM. For the same molecule, the IC50 (MDA-MB 231 (Breast)) was 3.1 ± 0.2 µM and the IC50 (SK-MEL-1 (Skin)) was 5.6 ± 0.8 µM.
